Data set [1] is described as follows: Critical micelle concentration (CMC) with fluorescent probe N-phenyl-1-naphthylamine. In kind it is physicochemical. Conditions: surfactant in PBS pH 7.4. The protocol:
Critical Micelle Concentration (CMC) was determined for a range of surfactants, following the method described by Brito et al. ‘Determination of the critical micelle concentration of surfactants using the fluorescent probe N-phenyl-1-naphthylamine.’ Anal. Biochem 1986 (152) 250-255.
Briefly, the surfactants were dissolved in PBS (pH 7.4), serially diluted and mixed with N-phenyl-1-naphthylamine (NPN; TCI). The fluorescence of each sample was quantified (excitation at 350 nm; emission at 420 nm) and plotted against the concentration of each surfactant. The CMC was found at the intersection of two straight lines traced on the emission intensity plot, defining the aqueous and micellar environments.
The evolution of SWCNTs resuspension was performed by optical density measurement (at 600 nm) on a microplate reader. N-phenyl-1-naphthylamine (NPN) (Sigma-Aldrich) was used to determine the DDAB critical micelle concentration (CMC) and the presence of micelles on the SWCNT suspension. A solution of NPN of 2×10^−1 M in ethanol was prepared and further diluted in PBS to the working concentration of 2×10^−4 M. DDAB or SWCNT-DDAB suspensions were mixed in equal volumes on a opaque 96-well plate and the fluorescence measured with the assistance of a SpectraMax Fluoremeter using an excitation and emission wavelength of 320 and 450 nm, respectively.

Data set [2] has as its system Staphylococcus aureus ATCC 6538. Briefly: Minimal inhibitory concentration (growth kinetics at 600 nm / broth microdilution). Particulars: for MIC: Staphylococcus aureus, ATCC6538, 18 h.
Procedure: (§1) Growth kinetics of Candida albicans ATCC 10231 (C. albicans, fungi), Staphylococcus aureus ATCC 6538 (S. aureus, gram-positive bacteria) and Escherichia coli ATCC 25922 (E. coli, gram-negative bacteria) (1×10^5 cells/ml) exposed to variable concentrations (from 62.5 to 500 μg/ml for fungi and from 15.6 to 500 μg/ml for S. aureus and E. coli) of the surfactants was evaluated by absorbance at 600 nm. Inoculum corresponds to prokaryotic cells incubated without surfactants. The samples were prepared in a 96-well plate and incubated for 18 h at 30° C. (fungi) or 37° C. (bacteria) with constant shaking in a Biotek Synergy Mx spectrophotometer.
(§2) Minimum inhibitory concentrations (MICs) were determined by the broth microdilution method according to the National Committee for Clinical Laboratory Standard (for yeasts; NCCLS; M27A2E) and the Clinical and Laboratory Standards Institute (for bacteria; CLSI; M07-A8) guidelines.
(§3) Inoculum corresponds to prokaryotic cells incubated without SNPs. The samples were prepared as described above.
(§4) Typically, SWCNTs coated with DDAB or other surfactants were diluted taking in account the initial surfactant concentration being the SWCNT concentration estimated by the corresponding mass ratio used. The antimicrobial activity of the coated SWCNTs was tested in suspension against Candida albicans ATCC 10231 (C. albicans, fungi), Staphylococcus aureus ATCC 6538 (S. aureus, bacteria gram-positive) and Escherichia coli ATCC 25922 (E. coli, bacteria gram-negative). Yeast Peptone Dextrose (YPD) and Tryptone Soy Yeast (TSY) media were used to culture yeast and bacteria, respectively. […] Inoculum corresponds to cells incubated without CNTs. The samples were prepared in a 96-well plate and incubated for 18 h at 30° C. (fungi) or 37° C. (bacteria) with constant shaking in a Biotek Synergy Mx spectrophotometer.
For data set [3], the system named is Candida albicans ATCC 10231. The description is as above. Conditions: for MIC: Candida albicans, ATCC10231, 18 h.
Procedure: as §1, §2, §3, §4
Data set [4] deals with Escherichia coli ATCC 25922. The data set is described as above. Particulars: for MIC: Escherichia coli, ATCC25922, 18 h.
Procedure: as §1, §2, §3, §4
[5] abbreviates: soluble surfactant, 15.6 to 500 μg/ml, 18 h at 37° C.
The mark [6] stands for this setting: read-out: MIC S. aureus, soluble surfactant, 15.6 to 500 μg/ml, 18 h at 37° C.

SMILES strings stand for the structures. Where two headings read alike, the source gives them in different places.

Compound `CCCCCCCCCCCCCC[N+](C)(C)CCCCCCCCCCCCCC.[Br-]` [DTDAB, ditetradecyldimethylammonium bromide] had a CMC in data set [1] of 7.8 µg/mL.
For the compound `CCCCCCCCCCCC[N+](C)(C)C.[Br-]` [DTAB, dodecyltrimethylammonium bromide], the MIC worked out at 31.2 µg/mL in data set [2] (read-out: MIC S. aureus); 250 µg/mL in data set [3] (read-out: MIC C. albicans); 125 µg/mL in data set [4] (read-out: MIC E. coli, soluble surfactant, 15.6 to 500 μg/ml, 18 h at 37° C.). In data set [1], this compound returned a CMC of 3515.1 µg/mL. Also, the “MIC E. coli” value in data set [4] (setting [5]) was found to be 62.5 µg/mL.
`CCCCCCCCCCCCCCCC[N+](C)(C)CCCCCCCCCCCCCCCC.[Br-]` [DHDAB, dihexadecyldimethylammonium bromide] had a CMC in data set [1] of 5.2 µg/mL.
As to `CCCCCCCCCCCC[N+](C)(CCCCCCCCCCCC)CCCCCCCCCCCC.[Cl-]` [TMAC, tridodecylmethylammonium chloride], the MIC in data set [2] (setting [6]) came out at 125 µg/mL. In data set [1], this compound returned a CMC of 246.2 µg/mL.
For the compound `CCCCCCCCCCCC[N+](C)(C)CCCCCCCCCCCC.[Br-]` [DDAB, didodecyldimethylammonium bromide], the MIC in data set [2] (setting [6]) is 31.2 µg/mL; in data set [3] (read-out: MIC C. albicans, soluble surfactant, 62.5 to 500 μg/ml, 18 h at 30° C.), 125 µg/mL; in data set [4] (read-out: MIC E. coli), 125 µg/mL. The “MIC S. aureus” value in data set [2] (setting [5]) turned out to be 31.3 µg/mL. In addition, the “MIC C. albicans” value in data set [3] (soluble surfactant, 62.5 to 500 μg/ml, 18 h at 30° C.) amounted to 250 µg/mL. In data set [1], this compound showed a CMC of 32.4 µg/mL.
